# Assay results: patent US20150368248A1, “2-SUBSTITUTED-6-BIARYLMETHYLAMINO-9-CYCLOPENTYL-9H-PURINE DERIVATIVES, USE THEREOF AS MEDICAMENTS, AND PHARMACEUTICAL COMPOSITIONS” (UNIVERZITA PALACKEHO V OLOMOUCI, priority 2013, published 2015)
# Tests used:
# [1] = test system: p53-regulated transcription in Arn8 cells; test: p53-dependent transcriptional activity, β-galactosidase reporter; assay type: cell-based; conditions: 24 h incubation
# Experimental: Stronger anticancer activity of the compounds is enhanced by its positive impact on stability and activity of the tumour suppressor p53. To measure p53-dependent transcriptional activity, β-galactosidase activity was quantified in the melanoma cell line Arn8, which had been established using stable transfection of cells with a p53-responsive reporter construct pRGCAfoslacZ (Frebung et al., Cancer Res., 52, 1992-6976). Briefly, after 24 h incubation with the inhibitors the Arn8 cells were permeabilized with 0.3% Triton X-100 for 15 min and then 4-methylumbelliferon-β-D-galactopyranoside was added as a substrate to the final concentration of 80 μM. After 1 h the fluorescence of product 4-methylumbelliferon was measured at 355/460 nm (ex/em) with a Fluoroskan Ascent microplate reader (Labsystems). Data in Tab. 8 present that series of 2-substituted-6-biarylmethylamino-9-cyclopentyl-9H-purine derivatives show a dose-dependent activatory effect on p53-regulated transcription, with the maximum impact observed between 100 and 500 nM concentrations for most of prepared compounds (Tab. 8).
# HepG2 = test: MTT cytotoxicity assay (Example 30); assay type: cell-based; conditions: Homo sapiens, HepG2, 72 h; MTT, three days after drug addition; read-out: Inhibitory concentration IC50, HepG2
# Source text: Cytotoxicity of the compounds is the major property determining their anticancer effect in vivo. One of the parameters used, as the basis for cytotoxicity assays, is the metabolic activity of viable cells. For example, a microtiter assay, which uses (3-(4,5-Dimethylthiazol-2-yl)-2,5-diphenyltetrazolium bromide (MTT), is widely used to quantitate cell proliferation and cytotoxicity. For instance, this assay is used in drug screening programs and in chemosensitivity testing. Because only metabolically active living cells reduce MTT to correspond purple formazan dye, these assays detect viable cells exclusively. The quantity of reduced MTT corresponds to the number of vital cells in the culture.
# We have been using the following cell lines: HUH-7 and PLC/PRF/5 cell lines were maintained in DMEM supplemented with 10% fetal bovine serum, penicillin (100 U/ml) and streptomycin (100 μg/ml). Unique HCC-1.2 (3p) and HCC-1.1 (3sp) cell lines (Zilj et al., 2009, Future Oncol, 5(8):1169-79) and Hep3B cells were cultivated in RPMI supplemented with 10% fetal bovine serum, penicillin (100 U/ml) and streptomycin (100 μg/ml). HepG2 cell line was maintained in EMEM supplemented with 10% fetal bovine serum, sodium pyruvate (0.11 g/1), penicillin (100 U/ml) and streptomycin (100 μg/ml). All cell lines were cultivated at 37° C. in 5% CO2. For cytotoxicity assays, 3000 cells (10000 cells in case of HepG2 cell line) were seeded into each well of 96 well plate and the next day tested compounds were added at various concentrations in triplicates. Three days after drug addition MTT stock solution (5 mg/ml) was added into each well and incubated for 4 h. After this incubation period, produced formazan was dissolved by DMSO and final absorbance was measured at 570 nm with Synergy H4 Hybrid Multi-Mode Microplate Reader.
# [2] = test system: human umbilical vein endothelial cells (HUVECs); test: Migration scratch assay; assay type: cell-based; set-up: key to Wound area: ++: open; +: partly open; 0: closed; conditions: 24 h
# Experimental: Migration assay was performed as described previously (Krystof et al., 2011, Eur J Med Chem.; 46(9):4289-94). Briefly, confluent HUVECs were scratched and immediately treated for 24 h with various doses of compounds. After incubation each well was photographed using a DP Controller system (Olympus) connected to a Olympus BX50 microscope. Migration was expressed as the proportion of pixels of the wound area in the image that were not covered by cells using “in house” software.
# CDK9/Cyclin T1 = molecular target: T1, CDK9/Cyclin T1 (Homo sapiens, UniProt P50750); test: Kinase inhibition assay, recombinant kinase, [γ-33P]ATP; assay type: biochemical; conditions: for remaining activity at 0.1 µM: 100 nM; for remaining activity at 0.1 µM / remaining activity at 1 µM: read-out: Residual kinase activity, CDK9; for remaining activity at 1 µM: 1000 nM
# T1 construct: purchased ProQinase GmbH (Freiburg, Germany)
# T1 sequence (P50750 whole entry): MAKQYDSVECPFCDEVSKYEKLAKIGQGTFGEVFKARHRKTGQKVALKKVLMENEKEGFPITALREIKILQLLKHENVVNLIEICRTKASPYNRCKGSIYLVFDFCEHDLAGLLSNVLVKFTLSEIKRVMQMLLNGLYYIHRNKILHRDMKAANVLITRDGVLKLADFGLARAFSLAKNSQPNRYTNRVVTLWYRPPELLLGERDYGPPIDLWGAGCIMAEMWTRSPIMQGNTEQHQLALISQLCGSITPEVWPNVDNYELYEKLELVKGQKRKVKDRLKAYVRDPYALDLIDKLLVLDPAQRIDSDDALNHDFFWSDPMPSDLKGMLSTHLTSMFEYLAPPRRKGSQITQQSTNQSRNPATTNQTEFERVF
# T1 sequence (O60563 whole entry partner): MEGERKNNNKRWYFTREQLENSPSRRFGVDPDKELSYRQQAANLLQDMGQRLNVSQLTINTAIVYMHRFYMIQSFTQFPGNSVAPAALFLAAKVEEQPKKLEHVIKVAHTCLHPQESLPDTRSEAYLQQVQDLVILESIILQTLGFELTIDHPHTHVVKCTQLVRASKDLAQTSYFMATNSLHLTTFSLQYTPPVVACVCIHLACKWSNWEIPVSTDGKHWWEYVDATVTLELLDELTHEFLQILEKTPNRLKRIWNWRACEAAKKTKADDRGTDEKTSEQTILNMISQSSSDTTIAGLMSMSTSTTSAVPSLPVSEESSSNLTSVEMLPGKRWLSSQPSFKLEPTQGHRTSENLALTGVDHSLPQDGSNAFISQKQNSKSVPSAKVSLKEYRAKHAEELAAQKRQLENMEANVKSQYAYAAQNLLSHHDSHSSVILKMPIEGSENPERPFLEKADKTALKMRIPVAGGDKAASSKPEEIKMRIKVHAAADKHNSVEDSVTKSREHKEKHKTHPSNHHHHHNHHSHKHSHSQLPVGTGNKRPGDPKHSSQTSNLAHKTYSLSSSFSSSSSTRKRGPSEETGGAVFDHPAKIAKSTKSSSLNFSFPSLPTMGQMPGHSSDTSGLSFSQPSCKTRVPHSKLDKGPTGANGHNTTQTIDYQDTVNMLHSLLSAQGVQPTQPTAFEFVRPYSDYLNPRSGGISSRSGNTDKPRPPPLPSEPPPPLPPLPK
# Experimental: (§1) CDK2/Cyclin E kinase was produced in Sf9 insect cells via baculoviral infection and purified on a NiNTA column (Qiagen). CDK5/p35, CDK7Cyclin H/MAT1 and CDK9/Cyclin T1 was purchased from ProQinase GmbH. The kinase reactions were assayed with 1 mg/mL histone H1 (for CDK2 and CDK5) or (YSPTSPS)2KK peptide (for CDK7 and CDK9) in the presence of 15/0.15/1.5/1.5 μM ATP (for CDK2/CDK5/CDK7CDK9), 0.05 μCi [γ-^33P]ATP and of the test compound in a final volume of 10 μL, all in a reaction buffer (60 mM HEPES-NaOH, pH 7.5, 3 mM MgCl2, 3 mM MnCl2, 3 μM Na-orthovanadate, 1.2 mM DTT, 2.5 μg/50 μl PEG20,000). The reactions were stopped by adding 5 μL of 3% aq H3PO4. Aliquots were spotted onto P-81 phosphocellulose (Whatman), washed 3× with 0.5% aq H3PO4 and finally air-dried.
# (§2) CDK1/cyclin B and CDK2/cyclin E kinases were produced in Sf9 insect cells via baculoviral infection, while CDK5/p35, CDK7/cyclin H/MAT1, and CDK9/cyclin T1 were purchased from ProQinase (Freiburg, Germany) and assayed as described previously (35). The kinase reactions were assayed with 1 mg/ml histone H1 (for CDK2 and CDK5) or (YSPTSPS)2KK peptide (for CDK7 and CDK9) in the presence of 15/0.15/1.5/1.5 […] ATP (for CDK2/CDK5/CDK7CDK9), […] [γ-^33P]ATP and of the test compound in a final volume of […]. The reaction buffer contained 60 mM HEPES-NaOH, pH 7.5, 3 mM MgCl2, 3 mM MnCl2, 3 mM Na-orthovanadate, 1.2 mM DTT, 2.5 mg/50 ml PEG20.000. The reactions were stopped by adding […] of 3% H3PO4. Aliquots were spotted onto P-81 phosphocellulose (Whatman, GE Healthcare Biosciences, Pittsburgh, USA), washed 3 times with 0.5% H3PO4 and finally air-dried. Kinase inhibition was quantified using a FLA-7000 digital image analyzer (Fujifilm, Tokyo, Japan).
# CDK5/p35 = molecular target: T2, CDK5/p35 (Homo sapiens, UniProt Q00535); test: as above; assay type: biochemical; conditions: read-out: Residual kinase activity, CDK5; for remaining activity at 0.1 µM: 100 nM; for remaining activity at 1 µM: 1000 nM
# T2 construct: purchased ProQinase GmbH (Freiburg, Germany)
# T2 sequence (Q00535 whole entry): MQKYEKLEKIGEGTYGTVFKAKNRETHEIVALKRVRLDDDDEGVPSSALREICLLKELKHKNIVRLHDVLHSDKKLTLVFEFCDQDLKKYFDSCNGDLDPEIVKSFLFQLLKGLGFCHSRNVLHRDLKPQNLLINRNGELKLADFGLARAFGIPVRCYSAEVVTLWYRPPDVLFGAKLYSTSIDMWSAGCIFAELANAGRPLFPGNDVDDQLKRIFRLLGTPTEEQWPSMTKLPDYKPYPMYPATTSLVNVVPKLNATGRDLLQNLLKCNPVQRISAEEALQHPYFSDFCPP
# T2 sequence (Q15078 whole entry partner): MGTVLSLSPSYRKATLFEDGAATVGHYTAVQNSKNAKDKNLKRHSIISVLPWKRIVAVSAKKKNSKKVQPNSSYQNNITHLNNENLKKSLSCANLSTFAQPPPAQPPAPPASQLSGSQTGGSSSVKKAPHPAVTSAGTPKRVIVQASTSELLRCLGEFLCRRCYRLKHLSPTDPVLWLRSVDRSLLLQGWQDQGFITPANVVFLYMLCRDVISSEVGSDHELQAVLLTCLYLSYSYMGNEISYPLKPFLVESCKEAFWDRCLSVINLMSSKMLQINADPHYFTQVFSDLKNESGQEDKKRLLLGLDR
# Experimental: as §1, §2
# CDK7/cyclin H/MAT1 = molecular target: T3, CDK7/cyclin H/MAT1 (Homo sapiens, UniProt P50613); test: as above; assay type: biochemical; conditions: read-out: Residual kinase activity, CDK7; for remaining activity at 0.1 µM: 100 nM; for remaining activity at 1 µM: 1000 nM
# T3 construct: purchased ProQinase GmbH (Freiburg, Germany)
# T3 sequence (P50613 whole entry): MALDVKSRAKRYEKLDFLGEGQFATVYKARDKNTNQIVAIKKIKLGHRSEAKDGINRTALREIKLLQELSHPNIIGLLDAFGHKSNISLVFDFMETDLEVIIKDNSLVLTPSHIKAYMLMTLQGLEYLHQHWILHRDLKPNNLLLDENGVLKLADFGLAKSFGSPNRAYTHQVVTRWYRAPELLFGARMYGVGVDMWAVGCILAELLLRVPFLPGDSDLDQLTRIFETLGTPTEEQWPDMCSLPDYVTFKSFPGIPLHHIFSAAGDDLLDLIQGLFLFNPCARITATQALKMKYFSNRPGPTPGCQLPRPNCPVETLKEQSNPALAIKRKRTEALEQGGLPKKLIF
# T3 sequence (P51946 whole entry partner): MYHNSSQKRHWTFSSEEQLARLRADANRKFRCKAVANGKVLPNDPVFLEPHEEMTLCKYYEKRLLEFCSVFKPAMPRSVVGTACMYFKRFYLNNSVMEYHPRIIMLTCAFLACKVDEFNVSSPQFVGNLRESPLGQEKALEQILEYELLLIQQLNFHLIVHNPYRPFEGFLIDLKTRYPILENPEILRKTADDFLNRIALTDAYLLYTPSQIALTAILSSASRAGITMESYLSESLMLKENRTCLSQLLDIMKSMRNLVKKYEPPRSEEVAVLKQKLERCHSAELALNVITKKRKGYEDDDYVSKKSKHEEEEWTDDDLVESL
# T3 sequence (P51948 whole entry partner): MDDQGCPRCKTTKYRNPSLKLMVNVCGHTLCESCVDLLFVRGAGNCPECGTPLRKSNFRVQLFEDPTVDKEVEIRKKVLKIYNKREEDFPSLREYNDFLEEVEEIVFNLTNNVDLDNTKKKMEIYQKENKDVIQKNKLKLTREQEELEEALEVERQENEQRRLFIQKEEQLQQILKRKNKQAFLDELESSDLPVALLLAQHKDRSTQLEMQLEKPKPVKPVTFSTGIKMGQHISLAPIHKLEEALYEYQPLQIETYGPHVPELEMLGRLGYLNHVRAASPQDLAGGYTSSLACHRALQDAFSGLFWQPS
# Experimental: as §1, §2
structure (smiles),measurement,setting,value
"NC1CCC(Nc2nc(NCc3ccc(-c4cccs4)cc3)c3ncn(C4CCCC4)c3n2)CC1 (stereo not shown) [BP2, N^2-(4-amino-cyclohexyl)-9-cyclopentyl-N^6-(4-thiophen-2-yl-benzyl)-9H-purine-2,6-diamine]",Concentration of maximum activation,[1],930 nM
same,IC50,HepG2,444 nM
"NC1CCC(Nc2nc(NCc3ccc(-c4ccco4)cc3)c3ncn(C4CCCC4)c3n2)CC1 (stereo not shown) [BP4, N^2-(4-amino-cyclohexyl)-9-cyclopentyl-N^6-(4-furan-2-yl-benzyl)-9H-purine-2,6-diamine]",Concentration of maximum activation,[1],700 nM
same,IC50,HepG2,389 nM
same,Wound area,[2]; 100 nM,0
same,Wound area,[2]; 1000 nM,++
"NC1CCC(Nc2nc(NCc3ccc(-c4ccsc4)cc3)c3ncn(C4CCCC4)c3n2)CC1 (stereo not shown) [BP5, N^2-(4-amino-cyclohexyl)-9-cyclopentyl-N^6-(4-thiophen-3-yl-benzyl)-9H-purine-2,6-diamine]",Concentration of maximum activation,[1],961 nM
same,IC50,HepG2,247 nM
"NC1CCC(Nc2nc(NCc3ccc(-c4cccc(F)c4)cc3)c3ncn(C4CCCC4)c3n2)CC1 (stereo not shown) [BP12, N^2-(4-amino-cyclohexyl)-9-cyclopentyl-N^6-(3′-fluoro-biphenyl-4-ylmethyl)-9H-purine-2,6-diamine]",Concentration of maximum activation,[1],986 nM
same,IC50,HepG2,248 nM
"NC1CCC(Nc2nc(NCc3ccc(-c4ccoc4)cc3)c3ncn(C4CCCC4)c3n2)CC1 (stereo not shown) [BP13, N^2-(4-amino-cyclohexyl)-9-cyclopentyl-N^6-(4-furan-3-yl-benzyl)-9H-purine-2,6-diamine]",Concentration of maximum activation,[1],970 nM
same,IC50,HepG2,256 nM
"NC1CCC(Nc2nc(NCc3ccc(-c4ccco4)nc3)c3ncn(C4CCCC4)c3n2)CC1 (stereo not shown) [BP14, N^2-(4-amino-cyclohexyl)-9-cyclopentyl-N^6-(6-furan-2-yl-pyridin-3-ylmethyl)-9H-purine-2,6-diamine]",Concentration of maximum activation,[1],137 nM
same,IC50,HepG2,211 nM
same,remaining activity at 0.1 µM,CDK9/Cyclin T1,22.3%
same,remaining activity at 1 µM,CDK9/Cyclin T1,0.73%
same,IC50,"CDK9/Cyclin T1; Table 12, read-out: IC50, CDK9/cyklin T",7 nM
same,remaining activity at 0.1 µM,CDK5/p35,37.8%
same,remaining activity at 1 µM,CDK5/p35,24.8%
same,remaining activity at 0.1 µM,CDK7/cyclin H/MAT1,54.8%
same,remaining activity at 1 µM,CDK7/cyclin H/MAT1,23.9%
same,Wound area,[2]; 100 nM,+
same,Wound area,[2]; 1000 nM,++
"COc1ccccc1-c1ccc(CNc2nc(NC3CCC(N)CC3)nc3c2ncn3C2CCCC2)cc1 (stereo not shown) [BP16, N^2-(4-amino-cyclohexyl)-9-cyclopentyl-N^6-(2′-methoxy-biphenyl-4-ylmethyl)-9H-purine-2,6-diamine]",Concentration of maximum activation,[1],943 nM
same,IC50,HepG2,937 nM
"COc1ccccc1-c1ccc(CNc2nc(NC3CCC(N)CC3)nc3c2ncn3C2CCCC2)cn1 (stereo not shown) [BP18, N^2-(4-amino-cyclohexyl)-9-cyclopentyl-N^6-[6-(2-methoxy-phenyl)-pyridin-3-ylmethyl]-9H-purine-2,6-diamine]",Concentration of maximum activation,[1],510 nM
same,IC50,HepG2,417 nM
same,remaining activity at 0.1 µM,CDK9/Cyclin T1,32.6%
same,remaining activity at 1 µM,CDK9/Cyclin T1,1.03%
same,remaining activity at 0.1 µM,CDK5/p35,49.2%
same,remaining activity at 1 µM,CDK5/p35,23.6%
same,remaining activity at 0.1 µM,CDK7/cyclin H/MAT1,54.1%
same,remaining activity at 1 µM,CDK7/cyclin H/MAT1,24.1%
same,Wound area,[2]; 100 nM,+
same,Wound area,[2]; 1000 nM,++
"NC1CCC(Nc2nc(NCc3ccc(-c4cccc(F)c4)nc3)c3ncn(C4CCCC4)c3n2)CC1 (stereo not shown) [BP19, N^2-(4-amino-cyclohexyl)-9-cyclopentyl-N^6-[6-(3-fluoro-phenyl)-pyridin-3-ylmethyl]-9H-purine-2,6-diamine]",Concentration of maximum activation,[1],167 nM
same,IC50,HepG2,111 nM
same,remaining activity at 0.1 µM,CDK9/Cyclin T1,26.6%
same,remaining activity at 1 µM,CDK9/Cyclin T1,0.83%
same,remaining activity at 0.1 µM,CDK5/p35,37.7%
same,remaining activity at 1 µM,CDK5/p35,25.6%
same,remaining activity at 0.1 µM,CDK7/cyclin H/MAT1,55%
same,remaining activity at 1 µM,CDK7/cyclin H/MAT1,25%
same,Wound area,[2]; 100 nM,+
same,Wound area,[2]; 1000 nM,++
"OC1CCC(Nc2nc(NCc3ccc(-c4ccco4)nc3)c3ncn(C4CCCC4)c3n2)CC1 (stereo not shown) [BP21, 4-{9-cyclopentyl-6-[(6-furan-2-yl-pyridin-3-ylmethyl)-amino]-9H-purine-2-ylamino}-cyklohexanol]",Concentration of maximum activation,[1],918 nM
same,IC50,HepG2,38 nM
same,remaining activity at 0.1 µM,CDK9/Cyclin T1,49%
same,remaining activity at 1 µM,CDK9/Cyclin T1,7.74%
same,remaining activity at 0.1 µM,CDK5/p35,88.2%
same,remaining activity at 1 µM,CDK5/p35,23.4%
same,remaining activity at 0.1 µM,CDK7/cyclin H/MAT1,72%
same,remaining activity at 1 µM,CDK7/cyclin H/MAT1,48.5%
"Nc1ccccc1-c1ccc(CNc2nc(NC3CCC(N)CC3)nc3c2ncn3C2CCCC2)cn1 (stereo not shown) [BP22, N^2-(4-amino-cyclohexyl)-9-cyclopentyl-N^6-[6-(2-amino-phenyl)-pyridin-3-ylmethyl]-9H-purine-2,6-diamine]",Concentration of maximum activation,[1],373 nM
same,IC50,HepG2,> 1000 nM
same,remaining activity at 0.1 µM,CDK9/Cyclin T1,93.4%
same,remaining activity at 1 µM,CDK9/Cyclin T1,82.8%
same,remaining activity at 0.1 µM,CDK5/p35,87.8%
same,remaining activity at 1 µM,CDK5/p35,89%
same,remaining activity at 0.1 µM,CDK7/cyclin H/MAT1,70%
same,remaining activity at 1 µM,CDK7/cyclin H/MAT1,93.9%
"NC1CCC(Nc2nc(NCc3ccc(-n4cccn4)cc3)c3ncn(C4CCCC4)c3n2)CC1 (stereo not shown) [BP24, N^2-(4-amino-cyclohexyl)-9-cyclopentyl-N^6-(4-pyrazol-1-yl-benzyl)-9H-purine-2,6-diamine]",Concentration of maximum activation,[1],260 nM
same,IC50,HepG2,142 nM
same,Wound area,[2]; 100 nM,+
same,Wound area,[2]; 1000 nM,++
"Nc1ccccc1-c1ccc(CNc2nc(NC3CCC(N)CC3)nc3c2ncn3C2CCCC2)cc1 (stereo not shown) [BP32, N^2-(4-amino-cyclohexyl)-9-cyclopentyl-N^6-(2′-amino-biphenyl-4-ylmethyl)-9H-purine-2,6-diamine]",Concentration of maximum activation,[1],895 nM
same,IC50,HepG2,> 1000 nM
